13 molecules from ChEMBL document CHEMBL1201862, “PubChem BioAssay data set” (2004) can be followed below.

What all share (experiment): DTP human tumour cell line panel, 48 h
For assay [1], the system named is EKVX.
Assay [2] has as its system 786-0.
Assay [3] has as its system SW-620.
Assay [4] deals with SK-OV-3.
Assay [5] has as its system NCI-H23.
For assay [6], the system named is SF-295.
In assay [7] the test system is SNB-75.
Assay [8] deals with M19-MEL.
In assay [9] the test system is OVCAR-4.
Assay [10] has as its system Malme-3M.
In assay [11] the test system is HCC 2998.
Assay [12] has as its system OVCAR-8.
Assay [13] relates to HCT-116.
For assay [14], the system named is KM12.
Assay [15] deals with LOX IMVI.
The subject of assay [16] is MCF7.
Assay [17] concerns Hs-578T.
For assay [18], the system named is MDA-N.
Assay [19] deals with BT-549.
The test system of assay [20] is T47D.

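All cell lines were grown in 96-well plates and treated with compound for 48 hours. GI50 = concentration required for 50% inhibition of growth.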 The source made the active and inactive calls. Cut-off read from the data, not from the text of the source: active = GI50 up to about 1.1 µM and inactive = higher. A value given as a limit tells only on which side of the number the result lay.

The term GI50 denotes the concentration that inhibits growth by half. For the molecule `O=C(/C=C1\NC(=O)c2ccccc2N1)c1ccncc1`, the GI50 in assay [1], in assay [2], in assay [3], in assay [4], in assay [5] and in assay [6] was > 100 µM (inactive) throughout. Also, the GI50 in assay [7] is 45.9 µM (inactive); in assay [8], > 100 µM (inactive); in assay [9], > 100 µM (inactive); in assay [10], > 100 µM (inactive); in assay [11], > 100 µM (inactive); in assay [12], > 100 µM (inactive). Moreover, the GI50 in assay [13] was > 100 µM (inactive).
`CC1=NN(c2ccccc2)C(=O)C1/N=N/c1ccc(Br)cc1C` (configuration not stated): the GI50 in [1] was > 100 µM (inactive); in assay [2], 82.2 µM (inactive); in [3] it was > 100 µM (inactive); in assay [14] it was > 100 µM (inactive); in [4], 32.9 µM (inactive); in assay [5], 38 µM (inactive). Further, the GI50 in assay [6] is 72.8 µM (inactive); in assay [7], 19.1 µM (inactive); in assay [8] it was > 100 µM (inactive); in [9] it was 62.7 µM (inactive); in assay [10], > 100 µM (inactive); in assay [11], > 100 µM (inactive). Also, the values for the GI50 in assay [12] and in [13] were 95.9 µM (inactive) and 81.3 µM (inactive), respectively.
In the case of `CCN(CC)CCC(=O)N1CCc2c([nH]c3ccccc23)C1c1cccnc1` (configuration not stated), the GI50 in assay [15], in assay [1], in assay [2], in assay [3], in assay [14] and in [4] was > 100 µM (inactive) in each case. For the same molecule, the GI50 in [5], in assay [6], in assay [7], in assay [8], in [9] and in assay [11] was > 100 µM (inactive) each time. The GI50 in assay [12] and in assay [13] was > 100 µM (inactive) in each case.
As to `O=c1c2cc(Cl)ccc2sc2cccc(Cl)c12`, the GI50 in [15], in assay [1], in [2], in [3], in assay [14] and in assay [5] was > 100 µM (inactive) in each case. Further, the GI50 in assay [6], in assay [8], in assay [9], in assay [12] and in [13] was > 100 µM (inactive) in each case.
`COc1ccccc1/C=C1\CCC(CCN(C)C)(C2=CCCC2)C1=O` (configuration not stated): the GI50 in assay [15] was 17.1 µM (inactive); in assay [1] it was 1.81 µM (inactive); in assay [2], 14.4 µM (inactive); in assay [3] it was 17.5 µM (inactive); in assay [14], 18.2 µM (inactive); in assay [5] it was 31.6 µM (inactive). The GI50 in assay [6] was 17.3 µM (inactive); in assay [7], 17.4 µM (inactive); in assay [8] it was 17.9 µM (inactive); in assay [9], 17.7 µM (inactive); in assay [10] it was 15.7 µM (inactive); in assay [11], 18 µM (inactive). In addition, the figures for the GI50 in assay [12] and in [13] were 17.5 µM (inactive) and 12.7 µM (inactive), respectively.
On to `CC(C)c1ccc(O)c(Cc2cc(C(C)C)cc(Cc3cc(C(C)C)ccc3O)c2O)c1`, for which the GI50 is 2.65 µM (inactive) in assay [1]; 1.7 µM (inactive) in [2]; 1.72 µM (inactive) in assay [3]; 1.97 µM (inactive) in [14]; 1.68 µM (inactive) in assay [4]; 1.7 µM (inactive) in [5]. The GI50 in assay [6] is 1.88 µM (inactive); in assay [7], 2.16 µM (inactive); in assay [8], 1.61 µM (inactive); in assay [9], 1.39 µM (inactive); in assay [10], 1.5 µM (inactive); in [11] it was 1.78 µM (inactive). Besides, the GI50 was 2.09 µM (inactive) in assay [12] and 1.78 µM (inactive) in assay [13].
For the molecule `O=C(c1ccc(Cl)cc1)N(C(=S)N1CCN(c2ccccc2)CC1)C1CCCCC1`, the GI50 in assay [15] is 79.4 µM (inactive); in assay [2], > 100 µM (inactive); in assay [3], > 100 µM (inactive); in [14], > 100 µM (inactive); in assay [4] it was > 100 µM (inactive); in assay [5], > 100 µM (inactive). Moreover, the GI50 is > 100 µM (inactive) in assay [6]; 85.3 µM (inactive) in [7]; > 100 µM (inactive) in assay [8]; > 100 µM (inactive) in assay [9]; > 100 µM (inactive) in assay [10]; > 100 µM (inactive) in [12]. Besides, the GI50 in assay [13] was 45.7 µM (inactive).
Consider `COc1ccc(/C=C(\C(C)=O)C(=O)Nc2ccccc2)cc1`, for which the GI50 in [15], in [1], in [2], in assay [3], in [14] and in assay [4] was > 100 µM (inactive) in each case. For the same molecule, the GI50 in assay [5], in assay [6], in assay [8], in assay [9], in assay [10] and in [11] was > 100 µM (inactive) each time. Besides, the GI50 in [12] and in assay [13] was > 100 µM (inactive) in each case.
As to `COc1ccc(NC(=O)C(=O)c2c(O)c3ccc(O)cc3oc2=O)c([N+](=O)[O-])c1`, the GI50 in assay [15], in assay [1], in assay [2], in [3], in [14] and in assay [4] was > 100 µM (inactive) in each case. Moreover, the GI50 in assay [5], in [6], in assay [7], in [8], in [9] and in assay [10] was > 100 µM (inactive) each time. In addition, the GI50 in [11] and in assay [13] was > 100 µM (inactive) each time.
With `c1ccc2c3c([nH]c2c1)C1C2CCCCN2C(c2ccncc2)N1CC3` (configuration not stated), the GI50 in [15] was 37.2 µM (inactive); in assay [1], 54.3 µM (inactive); in assay [2], 63.4 µM (inactive); in assay [3], 33.5 µM (inactive); in assay [14], 35.9 µM (inactive); in assay [4], 36.6 µM (inactive). The GI50 was 34.4 µM (inactive) in assay [5]; 38.9 µM (inactive) in assay [6]; 22.8 µM (inactive) in assay [7]; 37.2 µM (inactive) in assay [8]; 61.5 µM (inactive) in [9]; 34 µM (inactive) in assay [10]. Also, the GI50 was 38.1 µM (inactive) in [12] and 35 µM (inactive) in assay [13].
Regarding `N#Cc1ccccc1NC(=O)/C(=N\Nc1ccc([N+](=O)[O-])cc1)C1C(=O)NC(=O)NC1=O`, the GI50 in [15], in [1], in assay [2], in assay [3], in assay [14] and in assay [4] was > 100 µM (inactive) throughout. Also, the GI50 in assay [5], in assay [7], in assay [8], in assay [9], in [10] and in assay [11] was > 100 µM (inactive) throughout. For the same molecule, the GI50 in [12] and in assay [13] was > 100 µM (inactive) throughout.
`Cn1c2ccccc2c2cc(N3CCCC3)c3c(c21)C(=O)N(c1ccccc1)C3=O`: the GI50 in [16] was 24.3 µM (inactive); in assay [15], > 100 µM (inactive); in assay [17] it was 72.9 µM (inactive); in assay [1], 86.7 µM (inactive); in [2] it was 33.8 µM (inactive); in assay [3], > 100 µM (inactive). The GI50 in assay [14] was > 100 µM (inactive); in assay [4] it was 58.9 µM (inactive); in assay [18], > 100 µM (inactive); in assay [5], > 100 µM (inactive); in assay [6], > 100 µM (inactive); in [7] it was 38.4 µM (inactive). The GI50 in [9] is 38.9 µM (inactive); in [10], > 100 µM (inactive); in assay [11], > 100 µM (inactive); in assay [19] it was > 100 µM (inactive); in assay [12], > 100 µM (inactive); in assay [13], > 100 µM (inactive). For the same molecule, in assay [20], the GI50 was 62.1 µM (inactive).
For the molecule `N/C(=N\N/C=C1\C=Nc2cc(C(F)(F)F)ccc2C1=O)NO`, the GI50 in assay [16], in assay [15], in assay [17], in assay [1], in assay [2] and in assay [3] was > 10 µM (inactive) in each case. In addition, the GI50 in [14] was 0.001 µM (active); in [4], > 10 µM (inactive); in [18], > 10 µM (inactive); in assay [5], > 10 µM (inactive); in assay [6], > 10 µM (inactive); in assay [7], 0.148 µM (active). Further, the GI50 in assay [9], in assay [10], in [11], in assay [19], in assay [12] and in [13] was > 10 µM (inactive) throughout. Besides, in assay [20], the GI50 was > 10 µM (inactive).
